Earlier results as cited in patent US20050106263A1, “Green tea, multivitamin, mineral and herb based hair and male facial skin formulas” (priority 2003, published 2005).

Legend:
[1] = in vivo
hair loss = settings: comparison drug, general statement

O=C(O[C@@H]1Cc2c(O)cc(O)cc2O[C@@H]1c1cc(O)c(O)c(O)c1)c1cc(O)c(O)c(O)c1 [EGCG, epigallocatchin-3-gallate]
oral bioavailability [1]: low oral bioavailability

Nc1cc(N2CCCCC2)nc(N)[n+]1[O-] [Rogaine]
effect on front hairline (hair loss): does not work well on the front hairline
persistence of effect after use is stopped (hair loss): must be continually used or its effects will not only cease but will reverse
